Laboratory results published in patent publication US20260209152A1, “Substituted Hydroxystilbene Compounds and Derivatives, Synthesis and Uses Thereof” (Kynan Duke IP, LLC, priority 2019, published 2026).
Like-named read-outs stand apart in the source and are kept apart here.

What was measured:
Assay in all cases: CellTiter Glo cell viability assay
Type in all cases: cell-based, human
[1] = tested on: Bladder TCCSUP; conditions: for IC50: Homo sapiens, TCC-SUP, 72 h, 3 Days of treatment, 18 2-fold dilutions 5-0.00003 μM
In short: (§1)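 Cells were seeded at 1.7*10^3 cells/well in quadruplicate and treated with 18 two-fold dilutions from 5 μM (0.000038146–5 μM), or with 1, 2, 5, 10 and 20 μM. Viability was read by CellTiter Glo luminescence on days 1, 3 and 5, and IC50 came from nonlinear regression of RLU against log dose.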

[2] = tested on: Pancreatic HPAC; conditions: for IC50: Homo sapiens, HPAC, 72 h, 3 Days of treatment, 18 2-fold dilutions 5-0.00003 μM
In short: as §1

[3] = tested on: Kidney HTB-45; conditions: for IC50: Homo sapiens, 72 h, 3 Days of treatment, 18 2-fold dilutions 5-0.00003 μM
In short: as §1

[4] = tested on: Kidney SK-NEP-1; conditions: for IC50: Homo sapiens, SK-NEP-1, 72 h, 3 Days of treatment, 18 2-fold dilutions 5-0.00003 μM
In short: as §1

[5] = tested on: Osteosarcomas HOS_CRL_1543; conditions: for IC50: Homo sapiens, 72 h, 3 Days of treatment, 18 2-fold dilutions 5-0.00003 μM
In short: as §1

[6] = tested on: Pancreatic CAPAN-2; conditions: for IC50: Homo sapiens, Capan-2, 72 h, 3 Days of treatment, 18 2-fold dilutions 5-0.00003 μM
In short: as §1

[7] = tested on: Osteosarcomas KHOS_N/P; conditions: for IC50: Homo sapiens, KHOS/NP, 72 h, 3 Days of treatment, 18 2-fold dilutions 5-0.00003 μM
In short: as §1

[8] = tested on: Breast MDA-MB-231; conditions: for IC50: Homo sapiens
In short: as §1

[9] = tested on: Lung NCI-H1299; conditions: for IC50: Homo sapiens, NCI-H1299, 72 h, 18 2-fold dilutions 5-0.00003 μM
In short: as §1

[10] = tested on: Liver Huh7; conditions: for IC50: Homo sapiens, Huh-7, 72 h, 3 Days of treatment, 18 2-fold dilutions 5-0.00003 μM
In short: as §1

[11] = tested on: Breast MCF7; conditions: for IC50: Homo sapiens, MCF7, 72 h, 3 Days of treatment, 18 2-fold dilutions 5-0.00003 μM
In short: as §1

[12] = tested on: Tongue SCC-9; conditions: for IC50: Homo sapiens, SCC-9, 72 h, 3 Days of treatment, 18 2-fold dilutions 5-0.00003 μM
In short: as §1

[13] = tested on: Colon HCT_116; conditions: for IC50: Homo sapiens
In short: as §1

[14] = tested on: Lung BEAS-2B; conditions: for IC50: Homo sapiens, BEAS-2B, 72 h, 3 Days of treatment, 18 2-fold dilutions 5-0.00003 μM
In short: as §1

[15] = tested on: Lung A549; conditions: for IC50: Homo sapiens, A549, 72 h, 3 Days of treatment, 18 2-fold dilutions 5-0.00003 μM
In short: as §1

[16] = tested on: Osteosarcomas MG3; conditions: for IC50: Homo sapiens, 72 h, 3 Days of treatment, 18 2-fold dilutions 5-0.00003 μM
In short: as §1

[17] = tested on: Liver JHH-7; conditions: for IC50: Homo sapiens, JHH7, 72 h, 3 Days of treatment, 18 2-fold dilutions 5-0.00003 μM
In short: as §1

[18] = tested on: Kidney 786-O; conditions: for IC50: Homo sapiens, 786-0, 72 h, 3 Days of treatment, 18 2-fold dilutions 5-0.00003 μM
In short: as §1

[19] = tested on: Connective Tissue Sarcoma HT-1080; conditions: for IC50: Homo sapiens, HT-1080, 72 h, 3 Days of treatment, 18 2-fold dilutions 5-0.00003 μM
In short: as §1

[20] = tested on: Lung NCI-H1048; conditions: for IC50: Homo sapiens, NCI-H1048, 72 h, 3 Days of treatment, 18 2-fold dilutions 5-0.00003 μM
In short: as §1

[21] = tested on: Osteosarcomas T1-73; conditions: for IC50: Homo sapiens, 72 h, 3 Days of treatment, 18 2-fold dilutions 5-0.00003 μM
In short: as §1

[22] = tested on: Rhabomyosarcoma CCL 166; conditions: for IC50: Homo sapiens, 72 h, 3 Days of treatment, 18 2-fold dilutions 5-0.00003 μM
In short: as §1

[23] = tested on: Liposarcoma 93T449; conditions: for IC50: Homo sapiens, 72 h, 3 Days of treatment, 18 2-fold dilutions 5-0.00003 μM
In short: as §1

[24] = MDA-MB-231, 72 h, 3 Days of treatment, 18 2-fold dilutions 5-0.00003 μM, read-out: Average IC50
[25] = MDA-MB-231, 120 h, Day 5 upon drug treatment, 10 dosages 0.0001-20 μM (Compound 8: 18 dosages 0.000038146 to 5 μM), read-out: IC50
[26] = 3 Days of treatment, read-out: Average IC50
[27] = Table 4: 3 Days of treatment, Average (1, 8) or single Exp A-D, read-out: IC50
[28] = HCT-116, 72 h, 3 Days of treatment, 18 2-fold dilutions 5-0.00003 μM, read-out: Average IC50
[29] = HCT-116, 120 h, Day 5 upon drug treatment, 10 dosages 0.0001-20 μM (Compound 8: 18 dosages 0.000038146 to 5 μM), read-out: IC50
[30] = IC50 of 1 [KYN-001] vs 8 [KYN-119], 3 Days

Q: With `COc1cc(/C=C/c2cc(O)cc(OC)c2CC=C(C)C)ccc1O` [Compound 1, (E)-3-(4-hydroxy-3-methoxystyryl)-5-methoxy-4-(3-methylbut-2-en-1-yl)phenol] as the molecule, how does the IC50 [1] read?
A: 294 nM

Q: And the IC50 [2]?
A: 4990 nM

Q: And the IC50 [3]?
A: 1730 nM

Q: What about the IC50 [4] of the same molecule?
A: 158 nM

Q: What about the IC50 [5] of the same molecule?
A: 358 nM

Q: And the IC50 [6]?
A: 182 nM

Q: And the IC50 [7]?
A: 68.7 nM

Q: What about the IC50 [8, 24] of the same molecule?
A: 32.6 nM

Q: What about the IC50 ([8]; MDA-MB-231, 72 h, Day 3 upon drug treatment, 10 dosages 0.0001-20 μM, read-out: IC50) of the same molecule?
A: 29.3 nM

Q: And the IC50 [8, 25]?
A: 57.3 nM

Q: What about the IC50 [9, 26] of the same molecule?
A: 62.4 nM

Q: And the IC50 [9, 27]?
A: 64.2 nM

Q: What about the IC50 [10] of the same molecule?
A: 78.9 nM

Q: What about the IC50 [11] of the same molecule?
A: 694 nM

Q: And the IC50 [12]?
A: 181 nM

Q: What about the IC50 [13, 28] of the same molecule?
A: 416 nM

Q: What about the IC50 [13, 29] of the same molecule?
A: 165 nM

Q: And the IC50 [14]?
A: 76.4 nM

Q: What about the IC50 [15] of the same molecule?
A: 163 nM

Q: And the IC50 [16]?
A: 35.9 nM

Q: And the IC50 [17]?
A: 696 nM

Q: And the IC50 [18]?
A: 334 nM

Q: And the IC50 [19]?
A: 36.7 nM

Q: What about the IC50 [20] of the same molecule?
A: 91.7 nM

Q: And the IC50 [21]?
A: 804 nM

Q: What about the IC50 [22] of the same molecule?
A: 96 nM

Q: What about the IC50 [23] of the same molecule?
A: 55.5 nM

Q: Which results are given for `CCOc1cc(O)cc(/C=C/c2ccc(O)c(OC)c2)c1CC=C(C)C` [Compound 8, (E)-3-Ethoxy-5-(4-hydroxy-3-methoxystyryl)-4-(3-methylbut-2-en-1-yl)phenol]?
A: IC50 [1]: 112 nM; Fold IC50 [1, 30]: 2.6; IC50 [2]: 1970 nM; Fold IC50 [2, 30]: 2.5; IC50 [3]: 463 nM; Fold IC50 [3, 30]: 3.7; IC50 [4]: 17.8 nM; Fold IC50 [4, 30]: 8.9; IC50 [5]: 32 nM; Fold IC50 [5, 30]: 11; IC50 [6]: 9.75 nM; Fold IC50 [6, 30]: 19; IC50 [7]: 10.5 nM; Fold IC50 [7, 30]: 6.6; IC50 [8, 24]: 8.48 nM; IC50 [8, 25]: ~0.00253 nM; Fold IC50 [8, 30]: 3.8; IC50 [9, 26]: 8.56 nM; IC50 [9, 27]: 8.56 nM; Fold IC50 [9, 30]: 7.3; IC50 [10]: 20.6 nM; Fold IC50 [10, 30]: 3.8; IC50 [11]: 136 nM; Fold IC50 [11, 30]: 5.1; IC50 [12]: 75.5 nM; Fold IC50 [12, 30]: 2.4; IC50 [13, 28]: 35.5 nM; IC50 [13, 29]: 28 nM; Fold IC50 [13, 30]: 12; IC50 [14]: 15 nM; Fold IC50 [14, 30]: 5.1; IC50 [15]: 30.9 nM; Fold IC50 [15, 30]: 5.3; IC50 [16]: 6.88 nM; Fold IC50 [16, 30]: 5.2; IC50 [17]: 519 nM; Fold IC50 [17, 30]: 1.3; IC50 [18]: 64.8 nM; Fold IC50 [18, 30]: 5.1; IC50 [19]: 17.3 nM; Fold IC50 [19, 30]: 2.1; IC50 [20]: 14.5 nM; Fold IC50 [20, 30]: 6.3; IC50 [21]: 3.93 nM; Fold IC50 [21, 30]: 205; IC50 [22]: 6.05 nM; Fold IC50 [22, 30]: 16; IC50 [23]: 15.1 nM; Fold IC50 [23, 30]: 3.7
